Values joined by “and” are separate entries in the source; they are usually repeats but may differ in a detail not shown here. Equal values may be shown once.
Legend:
[1] = test system: Bone marrow derived human mesenchymal stem cells; test: Visual observation of cell aggregates in chondrogenic culture; assay type: cell-based; conditions: day seven
Collagen 2A1 = test: Stem cell chondrogenesis, real time PCR gene expression: Collagen 2A1; assay type: cell-based, human; conditions: for Cp Coll / Mean regulation: Collagen 2A1; for Cp Coll / Mean regulation / Mean ΔCp: Day 22; for Mean regulation: vs saline; for Mean ΔCp: Collagen 2A1 vs GAPDH; for regulation, Collagen 2A1 / Mean regulation, Collagen 2A1: fold regulation vs saline; for regulation, Collagen 2A1 / ΔCp, Collagen 2A1 / 2^-ΔΔCp vs saline, Collagen 2A1 / ΔΔCp vs saline, Collagen 2A1: single replicate well; for Mean regulation, Collagen 2A1 / Mean ΔCp, Collagen 2A1: triplicate wells; for ΔCp, Collagen 2A1: human bone marrow MSC, chondrogenic medium + TGF beta 3; for ΔCp, Collagen 2A1 / 2^-ΔΔCp vs saline, Collagen 2A1 / ΔΔCp vs saline, Collagen 2A1 / Mean ΔCp, Collagen 2A1: vs Actin
Procedure: (§1) • Stem Cells: Bone marrow derived human mesenchymal stem cells: Passage 5 Bone marrow derived human mesenchymal stem cells (HUXMA-01001, Cyagen Biosciences, Sunnyvale Calif.) • Mesenchymal Stem Cell Chondrogenic Differentiation medium (GUXMX-90041, Cyagen Biosciences, Sunnyvale Calif.) • TheraPEAK MSCGM chemically defined Stem cell medium (190632 Lonza) • 1 mM Dexamethasone acetate and mifepristone in absolute ethanol (Sigma) • Saline or 0.9% Sodium chloride for injection ZR Flush (Excelsior Medical, Neptune N.J.) • Sterile filtered 0.6 mM sodium caprylate in saline (sigma) • Sterile filtered 3 mM NAT in saline (sigma); To prepare, heat at 60° C. for 30 minutes then sonicate for 5 minutes. • Sterile filtered 10 mM DADKP in saline • 0.2 μM syringe filters • Hepes buffered saline, Trypsin/EDTA, Trypsin neutralizing solution (Lonza reagent pack) • 182 cm2 tissue culture flasks • pipettes and sterile tips • Tissue culture hood, humidified CO2 incubator, water or bead bath • 24 well tissue culture plates • Qiagen RNeasy plus spin columns (Qiagen 74134) • Qiagen RT2 qPCR primer pairs for Collagen 2A1, MMP13, TIMP1, Aggrecan, GAPDH, and Actin B • Roche Sybr green I master mix and Invitrogen Superscript VILO master mix. • Roche 480 lightcycler
(§2) The following stock drug treatment solutions were prepared in saline for injection and warmed to 37° C. in bath: • 4 μM dexamethasone • 4 μM mifepristone • 3 mM NAT • 0.6 mM caprylate • 80 μM DADKP • Mix of 3 mM NAT, 0.6 mM caprylate, 80 μM DADKP (“Ampion” mix)
(§3) Cyagen Chondrogenic Differentiation medium was prepared by manufacturer protocols but excluding dexamethasone and TGF beta 3 supplements, and warmed to 37° C. in bath.
(§4) The treatment protocol included expanding 5 HUXMA stem cells in 182 cm^2 flasks containing 40 mls TheraPEAK™ MSCGM to 80-90% confluence. Cells were trypsinized from the flasks and a 1.0×10^7 cell suspension of HUXMA stem cells was warmed in Cyagen Chondrogenic Differentiation medium. 20 μl of warmed cell suspension was spotted in the middle of each well of a 24-well tissue culture plate (200,000 cells per spot), and incubated at 37° C. and 5% CO2 for one hour.
(§5) The plates were removed from the incubator and an additional 720 μl chondrogenic medium was added to each well. 250 μl saline, or drug solutions were added to the appropriate wells in triplicate (bringing the final drug dilution to one-quarter of the stock drug treatment solution concentrations). 10 μl of TGF beta 3 solution (supplied by Cyagen) was added to each well, and the plates were returned to the incubator.
(§6) RNA isolation and analysis was conducted for all plates as follows at days 7, 14, and 22 post treatment (with the described medium exchanges). […] Qiagen RNeasy plus lysis buffer (with 2mercaptoethanol) was added to each well and gently shaken for 10 minutes. The lysed cell suspensions from each well were transferred to Qiashredder columns and spun at 14,000 rpm for 2 minutes. RNA isolation proceeded by RNeasy™ plus manufacturer's protocol. RNA was eluted from the Qiagen columns using 25 μl RNase free water.
(§7) cDNA synthesis and real time PCR was conducted as follows. First strand synthesis of cDNA from all samples was performed in 20 μl total volume using 10 μl isolated RNA. All cDNA reactions were then diluted with 30 μl nuclease free water. Real time PCR was then performed using 5 μl diluted cDNA, Roche Syber green master mix, and Qiagen RT^2 gPCR™ primer pairs in 20 μl total reaction volume. Relative gene expression was determined by delta deta Ct method.

MMP13 = test: Stem cell chondrogenesis, real time PCR gene expression: MMP13; assay type: cell-based, human; conditions: for Mean regulation: vs saline; for Mean ΔCp / ΔCp: MMP13 vs GAPDH
Procedure: as §1, §2, §3, §4, §5, §6, §7

Aggrecan = test: Stem cell chondrogenesis, real time PCR gene expression: Aggrecan; assay type: cell-based, human; conditions: for Mean ΔCp / ΔCp: Aggrecan vs Actin; for Mean ΔCp / ΔCp / Cp Agg / Mean regulation: Day 22; for Cp Agg / Mean regulation: Aggrecan; for Mean regulation: vs saline
Procedure: as §1, §2, §3, §4, §5, §6, §7

SOX9 = test: Stem cell chondrogenesis, real time PCR gene expression: SOX9; assay type: cell-based, human; conditions: Day 14
Procedure: The treatment protocol included expanding 5 HUXMA stem cells in 182 cm^2 flasks containing 40 […] to 80-90% confluence. Cells were trypsinized from the flasks and a 1.0×10^7 cell suspension of HUXMA stem cells was warmed in Cyagen Chondrogenic Differentiation medium. 20 μl of warmed cell suspension was spotted in the middle of each well of a 24-well tissue culture plate (200,000 cells per spot), and incubated at 37° C. and 5% CO2 for one hour. […] Medium exchanges were performed every 3-4 days by aspirating the medium from the wells and replacing with fresh chondrogenic medium, diluted stocks, and TGF beta 3, as described above. […] Medium from the wells was removed and saved for further protein analysis. Qiagen RNeasy plus lysis buffer (with 2mercaptoethanol) was added to each well and gently shaken for 10 minutes. The lysed cell suspensions from each well were transferred to Qiashredder columns and spun at 14,000 rpm for 2 minutes. RNA isolation proceeded by RNeasyTM plus manufacturer's protocol. RNA was eluted from the Qiagen columns using 25 μl RNase free water. cDNA synthesis and real time PCR was conducted as follows. First strand synthesis of cDNA from all samples was performed in 20 μl total volume using 10 μl isolated RNA. All cDNA reactions were then diluted with 30 μl nuclease free water. Real time PCR was then performed using 5 μl diluted cDNA, Roche Syber green master mix, and Qiagen RT^2 gPCRTM primer pairs in 20 μl total reaction volume.

TIMP1 = test: Stem cell chondrogenesis, real time PCR gene expression: TIMP1; assay type: cell-based, human; conditions: Day 22; for Mean ΔCp / ΔCp: TIMP1 vs Actin
Procedure: as §1, §2, §3, §4, §5, §6, §7

[2] = Day 7, vs Actin, single replicate well
[3] = vs Actin, single replicate well

## C[C@@H]1NC(=O)[C@H](CC(=O)O)NC1=O [DADKP, aspartyl-alanyl diketopiperazine]
[1]
  form of the culture (discs or pellets): pulled into loose pellets
Collagen 2A1; Table 12
  Cp Coll: 27.41 and 25.44 and 22.94
  Mean regulation: 136.83
  Mean ΔCp: 7.223
Collagen 2A1; Table 16
  Cp Coll: 27.41 and 25.44 and 22.94
  Mean regulation: 136.83
  Mean ΔCp: 7.223
Collagen 2A1; Day 7
  regulation, Collagen 2A1: 1.65 and −2.28 and −1.25
  Mean regulation, Collagen 2A1: −0.62
  ΔCp, Collagen 2A1: 6.01 and 7.92 and 7.05
  2^-ΔΔCp vs saline, Collagen 2A1: 1.651 and 0.4393 and 0.8029
  ΔΔCp vs saline, Collagen 2A1: −0.72 and 1.187 and 0.317
  Mean ΔCp, Collagen 2A1: 6.993
Collagen 2A1; Day 14
  regulation, Collagen 2A1: 1.48 and 2.56 and −1.02
  Mean regulation, Collagen 2A1: 1.01
  ΔCp, Collagen 2A1: 10.49 and 9.7 and 11.09
  2^-ΔΔCp vs saline, Collagen 2A1: 1.4811 and 2.5609 and 0.9772
  ΔΔCp vs saline, Collagen 2A1: −0.57 and −1.36 and 0.033
  Mean ΔCp, Collagen 2A1: 10.43
Collagen 2A1; day 22
  collagen transcription (in words): greatly enhanced
  increase in transcription of Collagen 2a1: 2000 fold
Collagen 2A1; day fourteen, compared with the control in a pellet
  collagen transcription (in words): still elevated
MMP13; Day 7, fold regulation vs saline, single replicate well
  regulation, MMP13: −1.29 and 1.03 and −1.76
MMP13; Day 7, fold regulation vs saline, triplicate wells
  Mean regulation, MMP13: −0.67
MMP13; Day 7, human bone marrow MSC, chondrogenic medium + TGF beta 3, vs Actin, single replicate well
  ΔCp, MMP13: 5 and 4.6 and 5.45
MMP13; [2]
  2^-ΔΔCp vs saline, MMP13: 0.7774 and 1.0257 and 0.5691
  ΔΔCp vs saline, MMP13: 0.363 and −0.04 and 0.813
MMP13; Day 7, vs Actin, triplicate wells
  Mean ΔCp, MMP13: 5.017
MMP13; MMP13, Day 22, Table 12
  Cp, MMP13: 20.34 and 21.41 and 21.25
  Mean regulation: 0.36
MMP13; MMP13, Day 22, Table 16
  2^-ΔΔCp vs saline: 1.1277 and 1.0163 and 0.9352
  Cp, MMP13: 20.34 and 21.41 and 21.25
  Mean regulation: 0.36
MMP13; Day 22, Table 12
  Mean ΔCp: 2.96
  ΔCp: 2.82 and 2.97 and 3.09
MMP13; Day 22, Table 16
  Mean ΔCp: 2.96
  ΔCp: 2.82 and 2.97 and 3.09
Aggrecan; Table 12
  Mean ΔCp: 7.28
  ΔCp: 9.06 and 6.83 and 5.95
  Cp Agg: 24.7 and 23.56 and 22.36
  Mean regulation: 10.65
Aggrecan; Table 16
  Mean ΔCp: 7.28
  ΔCp: 9.06 and 6.83 and 5.95
  Cp Agg: 24.7 and 23.56 and 22.36
  Mean regulation: 10.65
Aggrecan; day 22
  increase in transcription of aggrecan: 20 fold
SOX9; fold regulation vs saline, single replicate well
  regulation, SOX9: −1.59 and 1.07 and 1.10
SOX9; fold regulation vs saline, triplicate wells
  Mean regulation, SOX9: 0.19
SOX9; human bone marrow MSC, chondrogenic medium + TGF beta 3, vs Actin, single replicate well
  ΔCp, SOX9: 7.85 and 7.08 and 7.04
SOX9; [3]
  2^-ΔΔCp vs saline, SOX9: 0.6285 and 1.0718 and 1.1019
  ΔΔCp vs saline, SOX9: 0.67 and −0.1 and −0.14
SOX9; vs Actin, triplicate wells
  Mean ΔCp, SOX9: 7.323
TIMP1; TIMP1, Table 12
  Cp TIMP1: 18.64 and 19.9 and 19.36
TIMP1; TIMP1, Table 16
  2-^ΔΔCp vs saline: 1.7013 and 1.5122 and 1.7613
  Cp TIMP1: 18.64 and 19.9 and 19.36
TIMP1; TIMP1, vs saline, Table 12
  Mean regulation: 1.66
  regulation: 1.70 and 1.51 and 1.76
TIMP1; TIMP1, vs saline, Table 16
  regulation: 1.70 and 1.51 and 1.76
TIMP1; Table 12
  Mean ΔCp: 3.04
  ΔCp: 3 and 3.17 and 2.95
TIMP1; Table 16
  Mean ΔCp: 3.04
  ΔCp: 3 and 3.17 and 2.95

Source: US11026940B2, “Compositions for the mobilization, homing, expansion and differentiation of stem cells and methods of using the same” (Ampio Pharmaceuticals, Inc., priority 2013, dated 2021)
